# According to US9642874B2, “Compositions of selenoorganic compounds and methods of use thereof” (Alltech, Inc., priority 2014, dated 2017):
# Key:
# [1] = tested on: Insr; test: Insr mRNA expression (QRT-PCR) in AML-12 cells; type: cell-based, mouse; details: insulin alone, 6 hours, without 8-CPT/Dex
# Protocol: For RNA analysis of insulin receptor (Insr), insulin like growth factor receptor (Igf1r), and Glucose-6-Phosphatase (G6pc), AML-12 cells were amplified in ITS, Dex and FBS-containing DMEM/F12 media, and cultured on 24-well (6.7×10^4 cells/well) plates in 10% FBS ITS-free DMEM/F12 media with or without Dex overnight. These cells were treated with control (water) or various compounds (diluted in 10% FBS ITS-free DMEM/F12 media with or without Dex) for 6 hours, 24 hours, or 48 hours.
# In some experiments, the AML-12 cells were washed twice with PBS after the compound treatments for 24 hours, and then incubated with selenium compounds (150 or 300 ppb of each compound) in the presence or absence of insulin (10 or 100 nM), 0.1 mM 8-CPT (Sigma), or 0.5 μM Dex in serum-free, glucose/phenol red-free DMEM media supplemented with 20 mM lactose and 2 mM pyruvate, and 15 mM HEPES (glucose-production media) for another 6 hours. After treatments, cell media were collected and subjected to glucose assays using Abcam glucose assay kit according to the manufacturer's protocol. […]
# Total RNA from these cells was isolated using Trizol (Invitrogen) according to the manufacturer's protocol, and then incubated with DNase I to remove any potential contaminated genomic DNA. […] Three to six samples were analyzed in each treatment group. […]
# [2] = tested on: Foxo4; test: Western blot of pFoxo4T28 in primary mouse hepatocytes; type: cell-based; details: 100 nM insulin, 6 hours
# Protocol: (§1) The overnight-acclimated hepatocytes were washed twice with PBS (to remove any residual FBS and other additives in the TRL hepatocyte maintenance medium, pretreated with control (water) or selenium Compounds CDE (150 or 300 ppb of each selenium compound) in DMEM/F12 media supplemented with 10% fetal bovine serum (FBS) for 24 hr. These cells were then washed twice with PBS and incubated with the same dose of selenium Compounds CDE (150 or 300 ppb) in the presence or absence of insulin (10 or 100 nM, Sigma), 0.1 mM 8-CPT (Sigma) or 0.5 μM Dex (Sigma) in serum-free and glucose-free DMEM media (Invitrogen) supplemented with 20 mM lactose (Sigma) and 2 mM pyruvate (Sigma) and 15 mM HEPES (Sigma) for another 6 hours. […]
# (§2) After the above described treatments, primary mouse hepatocytes were rinsed with ice-cold PBS and lysed in the ice-cold RIPA buffer containing complete proteinase and phosphatase inhibitors (Thermo-Fisher Scientific, Waltham, Mass.) on ice for 30 min Cell lysates were collected using a cell scraper and transfer pipette and then centrifuged at 12000×g for 30 min at 4° C. to remove the DNA pellet and obtain the protein extract. Protein levels in the supernatant of these cell lysates were determined using the Pierce Micro-BCA protein assay kit (Thermo Scientific-Piece Biotechnology, Rockford, Ill.) according to the manufacturer's protocol. […]
# [3] = tested on: Foxo3; test: Western blot of pFoxo3T32 in primary mouse hepatocytes; type: cell-based; details: 100 nM insulin 6 hours, or Compounds CDE both doses 24 hours + 6 hours
# Protocol: as §1, §2
substance,measurement,setting,value
"insulin: insulin (10 or 100 nM, Sigma) used as comparator and cotreatment",Insr expression,[1],did not increase
same,pFoxo4T28 levels,[2],barely detectable
same,pFoxo3T32 protein level (in words),[3],significant increase
